Literature values in patent publication US12090029B2, “Devices and methods for enhancing immunogenicity to intradermal vaccination” (VERSITECH LIMITED, priority 2016, dated 2024).

How the values were obtained:
influenza vaccine = conditions: mouse model, imiquimod cream applied (Zhang et al., 2014)
influenza vaccination = conditions: elderly subjects
[1] = tested on: vaccine influenza strains; conditions: young healthy individuals, topical application before intradermal trivalent influenza vaccine (Hung et al., 2016)

In the case of `CC(C)Cn1cnc2c(N)nc3ccccc3c21` [imiquimod], the “immunogenicity of influenza vaccine” value (influenza vaccine) is given as “enhanced”, the “hospitalizations for influenza or pneumonia” value (influenza vaccination; relative to a vaccine-only group) is given as “fewer” and the seroconversion rate (influenza vaccination; sustained to 1 year, relative to a vaccine-only group) is given as “earlier and better”. For the same molecule, the “immunogenicity of influenza vaccination” value (influenza vaccination; topical pre-treatment, relative to a vaccine-only group (Hung et al., 2014)) was “significantly expedited, augmented, and prolonged”, the “immunogenicity against the non-vaccine strains” value [1] was “increased” and the “immunogenicity against the vaccine influenza strains” value [1] was “significantly improved”.
